Ends that are not written are not given here.
Tests used:
NNV = conditions: synthetic sea bass peptides, NNV infection; ref Cervera et al. [2024b], [2025]; cited from earlier work
Description: Since co-administered peptides disrupt RGNNV adsorption in vitro, we evaluated their therapeutic potential in vivo by administering them […]. […] Given RGNNV’s rapid organ colonisation (Valero et al. [2018]), treatments were administered 2 h post-infection to ensure viral establishment.

RGNNV [1] = system: RGNNV; design: method as in Zhu et al. [2022]; conditions: RGNNV-infected hybrid grouper; ref Zhu et al. [2022]; cited from earlier work
Description: Given RGNNV’s rapid organ colonisation (Valero et al. [2018]), treatments were administered 2 h post-infection to ensure viral establishment.

E-11 cells = experiment: MTT cytotoxicity test on E-11 cells; format: cell-based; conditions: 24 h at 25 °C, mean of n = 3, control = 100.0
Description: Synthetic peptides cytotoxicity on E − 11 cells was assessed using the MTT (Sigma) test with serial peptide dilutions (1000–4 µg/mL in L − 15 medium; n = 3; 24 h at 25 °C) as elsewhere (Cervera et al. [2024c]). Absorbance was measured at 570 nm (BMG Labtech); blanks lacked cells. Cell viability was calculated as the OD ratio of treated to untreated cells × 100, normalized at 690 nm.
Supplementary data S4: Cell viability (%) of E-11 cells after incubation with the synthetic peptides for 24 h. Data represent the mean ± SEM (n=3).

RGNNV [2] = experiment: RGNNV in vivo bath challenge of European sea bass with peptide injection after infection; design: species or system European sea bass (Dicentrarchus labrax)
Description: RGNNV In vivo Challenge of European Sea Bass
A total of 375 sea bass were randomly assigned to eight experimental groups (in duplicate) and acclimated for 15 days. Seven groups were infected by immersion (10 L; 3.16 × 10^4 TCID₅₀ RGNNV/mL; 2 h), while a mock-infected control received conditioned medium. […] Combinations were selected according to the results obtained in the competitive in vitro assay against RGNNV (see below). Disease signs and mortalities were monitored daily for 23 days post-infection (dpi) using a four-rank scale (Valero et al. [2021a]). Fish (n = 6/group/time-point) were sampled at 2 and 23 dpi, euthanized with clove oil, bled, and weighed. Brain, NNV target tissue, and head-kidney, major hematopoietic tissue in fish, were dissected, frozen in TRIzol (Life Technologies), and stored at − 80 °C.
For viral load analysis, total RNA was extracted from sea bass brain and head-kidney using TRIzol (Life Technologies) and from E − 11 cells using the GenJET RNA Purification Kit (Thermo Fisher Scientific), following manufacturer protocols. One microgram of RNA was DNAse I-treated (1 U/µL; Thermo Scientific), and cDNA was synthesized using Superscript IV Reverse Transcriptase (Invitrogen). qPCR was performed on a QuantStudio 5 Flex (Applied Biosystems) to quantify cp, rdrp and mx genes using PowerUp SYBR Green reagents (Applied Biosystems). The protocol included a 95 °C hold, then 40 cycles (95 °C; 15 s) and 60 °C for 1 min. Relative expression was calculated using the 2^⁻ΔCt method (Livak and Schmittgen [2001]), with ef1a as the endogenous control. Primers (Supplementary Data S2) were validated by melting curve analysis and negative controls.
Fish mortality was analysed using Kaplan–Meier survival curves with log-rank (Mantel–Cox) tests for significance. Relative gene expression was evaluated by one-way ANOVA (p ≤ 0.05) followed by Tukey’s test. Viral kinetics were compared between P4-treated and untreated groups using Student’s t-test (p ≤ 0.05) at specific time points. All analyses were performed with IBM SPSS Statistics 20.
Fig. 4 Therapeutic administration of synthetic peptides improves survival and symptomatology in […] (RGNNV)-infected European sea bass juveniles. […] A mock-infected group was treated twice with only PBS. (A) Kaplan–Meier survival curves; (B) Heat-map representing the cumulated number of fish showing clinical signs of VER disease attending to their severity: (1) changes of the color of the skin, slower rhythm of swimming and/or slower reaction to external stimuli as feeding; (2) alterations in the swimming balance and/or erratic swimming spasms; (3) continuous erratic swimming; and (4) complete incapacity to keep balance, swim and/or move without external stimuli. VER, viral encephalopathy and retinopathy
Fig. 5 Therapeutic administration of synthetic peptides decreased viral loads in the brain without additional mx gene regulation in the sea bass juveniles head-kidney infected with red-spotted grouper nervous necrosis virus (RGNNV). […] A mock-infected group was treated twice with only PBS. (A–C) Transcription levels of RGNNV cp (A) and rdrp (B) genes in the brain and (C) mx gene in the head-kidney. Data represent the relative gene expression mean ± SEM (n = 6). Different letters indicate significant differences among groups according to the ANOVA (p < 0.05)

SJNNV = format: cell-based, striped jack nervous necrosis virus (strain SJNag97); conditions: virus (MOI 0.01) incubated with 500 μg/mL peptide for 15 min at 25 °C, titrated in E-11 cells; control virus + PBS; representative of two independent assays; Fig. 2B
Description: (§1) Parental RGNNV (strain It/411/96), SJNNV (strain SJNag97), and reassortant isolates (RGNNV/SJNNV, 367.2.2005; SJNNV/RGNNV, 389/I96) were used. Viruses were propagated in E − 11 cells cultured in L-15 Leibovitz medium (BioWest) supplemented with 5% FBS, 2 mM L-glutamine, and 100 IU/mL penicillin/streptomycin (Thermo Fisher Scientific) at 25 °C. Infected monolayers were incubated at 25 °C until extensive cytopathic effect (CPE) developed. Supernatants were then harvested, centrifuged, and titrated in triplicate using the end-point dilution method, expressed as TCID₅₀/mL (Reed and Müench [1938]).
(§2) For in vitro antiviral assays, viral cultures (MOI 0.01) from parental and reassortant strains were incubated with peptides (single or combined) using a non-lethal concentration previously tested (500 μg/mL; León et al. [2020]), for 15 min at 25 °C with gentle agitation. Controls were virus samples incubated with PBS (100% viral activity). Treated samples were titrated as previously. After medium removal, cells were exposed to ten-fold viral dilutions in 2% FBS. CPE was monitored daily for 10 days, and viral titres were calculated as TCID₅₀/mL (Reed and Müench [1938]) and expressed as viral titre or percent inhibition relative to controls.
Fig. 2 Designed peptides, single or combined, reduce the NNV absorption in vitro. NNV parental or reassortant genotypes were incubated with 500 μg/mL of the synthetic peptides for 15 min. Then, the viruses were titrated in the E − 11 cell line. Control samples consisted on virus incubated with the same amount of phosphate buffer saline. (A) Viral titer (TCID50/mL) and (B) % of virus inhibition with respect to the controls are represented. Data are representative of two independent assays. […] Each bar was matched to a substance by its colour and by the order of the legend.

RGNNV/SJNNV reassortant = experiment: In vitro antiviral (competition) assay: virus incubated with peptide, then titrated in E-11 cells; format: cell-based, RGNNV/SJNNV reassortant (367.2.2005); conditions: virus (MOI 0.01) incubated with 500 μg/mL peptide for 15 min at 25 °C, control virus + PBS, representative of two independent assays, Fig. 2B
Description: as §1, §2
Fig. 2 Designed peptides, single or combined, reduce the NNV absorption in vitro. […]

## Hepcidin
NNV
  Reduction of mortality: 30–35%

## NC12CC3CC(CC(C3)C1)C2 [amantadine]
RGNNV [1]
  Improvement of survival: 44%

## VSKASTVTGFGR-NH2 [Peptide P2]
E-11 cells; peptide 0.00411 mg/mL
  Viability (%) of E-11 cells, mean: 103.1%
E-11 cells; peptide 0.01234 mg/mL
  Viability (%) of E-11 cells, mean: 121.8%
E-11 cells; peptide 0.03704 mg/mL
  Viability (%) of E-11 cells, mean: 111.5%
E-11 cells; peptide 0.11111 mg/mL
  Viability (%) of E-11 cells, mean: 106.2%
E-11 cells; peptide 0.33333 mg/mL
  Viability (%) of E-11 cells, mean: 126.9%
E-11 cells; peptide 1.00000 mg/mL
  Viability (%) of E-11 cells, mean: 117.2%
RGNNV [2]; juvenile sea bass, bath infection 3.16 × 10^4 TCID₅₀ RGNNV/mL for 2 h, then intramuscular injection 1 µg peptide/g, 23 dpi, infected PBS group 63.6% survival
  Relative percent survival (RPS): 43.8%
RGNNV [2]; qPCR relative to ef1a, 2 dpi, n = 6, 1 µg peptide/g i.m. after RGNNV bath challenge, Fig. 5A
  RGNNV cp gene expression in the brain: no transcriptional effect
RGNNV [2]; qPCR relative to ef1a, 2 dpi, n = 6, 1 µg peptide/g i.m. after RGNNV bath challenge, Fig. 5B
  RGNNV rdrp gene expression in the brain: no transcriptional effect
SJNNV
  % of virus inhibition with respect to the controls, SJNNV: 90%
RGNNV/SJNNV reassortant
  % of virus inhibition with respect to the controls, RGNNV/SJNNV: 96.84%
